Literature values, collected in patent US6620425B1, “Food supplements and methods comprising lipoic acid and creatine” (Muscletech Research and Development Inc., priority 1998, dated 2003).

Legend:
[1] = insulin-sensitive individuals

## O=C(O)CCCCC1CCSS1 (stereo not drawn) [lipoic acid, 6,8-dithio octanoic acid]
In diabetics
  increase of the metabolic clearance rate of glucose: 50%
In type II diabetics
  the body's utilization of blood sugar: significantly increase

## chromium
[1]
  improvement of glucose tolerance: up to 50%
